Consider 4 compounds from US6939989B2, “Side-chain halogenated amino dicarboxylic acid derivatives as medicaments for treating cardiovascular diseases” (Bayer Aktiengesellschaft, priority 2001, dated 2005).

For orientation: IC50 means the concentration needed to halve the response being measured. Low values mean inhibition by little substance, high ones a need for much substance.

Assay [1] has as its target T1, Heme-containing sGC (Rattus norvegicus, UniProt P20595).
T1 construct: made in house; host or cells: Sf9 insect cells (baculovirus)
T1 sequence (P20595 1-619): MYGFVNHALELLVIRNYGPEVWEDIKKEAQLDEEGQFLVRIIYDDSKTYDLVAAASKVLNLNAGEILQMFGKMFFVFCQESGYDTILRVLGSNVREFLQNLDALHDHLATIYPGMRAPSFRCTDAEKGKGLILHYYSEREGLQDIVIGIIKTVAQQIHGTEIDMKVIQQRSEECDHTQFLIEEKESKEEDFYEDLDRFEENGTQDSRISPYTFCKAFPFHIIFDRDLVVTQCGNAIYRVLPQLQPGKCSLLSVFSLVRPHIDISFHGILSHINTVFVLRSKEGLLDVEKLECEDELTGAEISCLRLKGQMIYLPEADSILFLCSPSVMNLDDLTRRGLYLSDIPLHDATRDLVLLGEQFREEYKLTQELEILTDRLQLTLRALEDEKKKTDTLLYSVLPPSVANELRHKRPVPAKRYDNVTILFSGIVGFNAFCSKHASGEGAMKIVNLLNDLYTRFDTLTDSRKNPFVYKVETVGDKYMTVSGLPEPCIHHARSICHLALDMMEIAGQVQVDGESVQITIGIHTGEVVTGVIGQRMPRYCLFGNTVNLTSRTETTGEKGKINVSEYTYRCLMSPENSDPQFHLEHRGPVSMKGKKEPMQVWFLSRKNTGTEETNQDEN
T1 sequence (P19686 1-690 partner): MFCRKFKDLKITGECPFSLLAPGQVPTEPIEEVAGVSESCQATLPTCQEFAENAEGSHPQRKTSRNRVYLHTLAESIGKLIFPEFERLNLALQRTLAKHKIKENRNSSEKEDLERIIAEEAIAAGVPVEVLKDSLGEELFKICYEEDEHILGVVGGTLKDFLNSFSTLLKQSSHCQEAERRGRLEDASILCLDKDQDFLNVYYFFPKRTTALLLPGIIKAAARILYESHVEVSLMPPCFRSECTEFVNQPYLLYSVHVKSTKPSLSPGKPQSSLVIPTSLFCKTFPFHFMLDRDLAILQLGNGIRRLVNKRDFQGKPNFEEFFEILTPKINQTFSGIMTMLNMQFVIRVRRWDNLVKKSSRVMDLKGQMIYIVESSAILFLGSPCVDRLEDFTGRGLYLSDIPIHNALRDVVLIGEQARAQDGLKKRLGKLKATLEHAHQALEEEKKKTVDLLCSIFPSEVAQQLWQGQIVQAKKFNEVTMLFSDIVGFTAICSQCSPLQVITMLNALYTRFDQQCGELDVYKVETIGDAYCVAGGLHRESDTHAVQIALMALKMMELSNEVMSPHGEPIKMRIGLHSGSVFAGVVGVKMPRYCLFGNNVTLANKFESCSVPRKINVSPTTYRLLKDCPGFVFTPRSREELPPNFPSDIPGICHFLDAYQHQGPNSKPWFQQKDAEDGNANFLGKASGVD
The assay can be described thus: Stimulation of recombinant soluble guanylate cyclase (sGC) in vitro, heme-containing enzyme. The assay is classed as biochemical. Particulars: Ex. 6 0 μM. The procedure:
The investigations of the stimulation of recombinant soluble guanylate cyclase (sGC) […] heme-dependent sGC inhibitor 1H-1,2,4-oxadiazole-(4,3a)-quinoxalin-1-one (ODQ) were carried out according to the method described in detail in the following literature reference: M. Hoenicka, E. M. Becker, H. Apeler, T. Sirichoke, H. Schroeder, R. Gerzer and J.-P. Stasch: Purified soluble guanylyl cyclase expressed in a baculovirus/Sf9 system: stimulation by YC-1, nitric oxide, and carbon oxide. J. Mol. Med. 77 (1999): 14-23.
Activation of sGC by a test substance is stated as n-fold stimulation of basal activity.

In assay [2] the test system is arteria saphena rings. The assay can be described thus: Vasorelaxant effect in vitro (phenylephrine-contracted arteria saphena rings). The assay is classed as cell-based, Rabbits. Particulars: Oryctolagus cuniculus; rabbit arteria saphena rings, phenylephrine contraction. As to the method:
Rabbits are anesthetized or killed by intravenous injection of thiopental sodium (about 50 mg/kg) and exsanguinated. The arteria saphena is removed and divided into rings 3 mm wide. The individual rings are in each case mounted on a pair of hooks of triangular shape, open at the ends and made of special wire (Remanium®) having a diameter of 0.3 mm. Under pretension, each ring is introduced into a 5 ml organ bath containing carbogen-gassed Krebs-Henseleit solution at 37° C. with the following composition (mM): NaCl: 119; KCl: 4.8; CaCl2×2H2O: 1; MgSO4×7H2O: 1.4; KH2PO4: 1.2; NaHCO3: 25; glucose: 10; bovine serum albumin: 0.001%. The force of contraction is detected with Statham UC2 cells, amplified and digitized via A/D converters (DAS-1802 HC, Keithley Instruments, Munich) and recorded in parallel on chart recorders. Contractions are generated by adding phenylephrine.
After several (generally 4) control cycles, the substance to be investigated is added in each further run in increasing dosage, and the height of the contraction reached under the influence of the test substance is compared with the height of the contraction reached in the last preceding run. The concentration necessary to reduce the height of the control value by 50% (IC50) is calculated from this. The standard application volume is 5 μl. The DMSO content in the bath solution corresponds to 0. 1%.

For the compound `CCN(CC)[N+]([O-])=NO` [DEA/NO, 2-(N,N-diethylamino)diazenolate 2-oxide, reference compound], the “Stimulation (n-fold), heme-containing sGC, DEA/NO alone” value is recorded as 5 n-fold in assay [1] (DEA/NO 0.001 μM), 30 n-fold in assay [1] (DEA/NO 0.01 μM) and 124 n-fold in assay [1] (DEA/NO 0.1 μM). Turning to `CC(C)(C)c1ccc(-c2ccc(COc3ccccc3CCN(CCCCC(=O)O)Cc3ccc(C(=O)O)cc3)c(F)c2)cc1` [Example 2], the 50% inhibitory concentration (IC50) in assay [2] is 0.15 nM.

`O=C(O)CCCCN(CCc1ccccc1OCc1ccc(C2=CCCCC2)cc1Cl)Cc1ccc(C(=O)O)cc1` [Example 9] gave an IC50 in assay [2] of 1.8 nM. In assay [2], `O=C(O)CCCCN(CCc1ccccc1OCc1ccc(C2CCCCC2)cc1Cl)Cc1ccc(C(=O)O)cc1` [Example 12] gave an IC50 of 2 nM.
